Experimental data as given in EP4786487A1, “PEPTIDE” (Peptidream Inc, priority 2023, dated 2025).
Starred links: 1 amine or outer side, 2 acyl side, 3 side chain; linkers in the order of their positions; H or OH if unused. Positions of bridges follow the written chain, without caps; N, C: chain ends. Non-standard residues stand in square brackets, D forms with d. Residues, ends and D or L forms follow the SMILES beside them. Groups on a side chain read outwards from the residue. *: point of attachment. Phe(4-(4-pyridyl)) = N[C@@H](Cc1ccc(-c2ccncc2)cc1)C(=O)O; Phe(3-OCH2COOH) = N[C@@H](Cc1cccc(OCC(=O)O)c1)C(=O)O; Phe(4-CONH2) = NC(=O)c1ccc(C[C@H](N)C(=O)O)cc1; Phe(4-COOH) = N[C@@H](Cc1ccc(C(=O)O)cc1)C(=O)O; Trp(7-aza) = N[C@@H](Cc1c[nH]c2ncccc12)C(=O)O; Piperazinyl(4-CH2COOH) = O=C(O)CN1CCN(*)CC1; Bip = N[C@@H](Cc1ccc(-c2ccccc2)cc1)C(=O)O; Gly(N(CH2)3COOH) = O=C(O)CCCNCC(=O)O; Gly(octyl) = CCCCCCCC[C@H](N)C(=O)O; NMeY = CN[C@@H](Cc1ccc(O)cc1)C(=O)O; X1 = CCCCCCC[C@H](N[*:1])C(=O)[*:2]; NMeCha = CN[C@@H](CC1CCCCC1)C(=O)O; NMeF = CN[C@@H](Cc1ccccc1)C(=O)O; Cha = N[C@@H](CC1CCCCC1)C(=O)O; Ahp(2) = CCCCC[C@H](N)C(=O)O; Carboxymethyl = O=C(O)C*; NMeA = CN[C@@H](C)C(=O)O; CO = O=C([*:1])[*:2]; Sar = CNCC(=O)O

Key:
Type in all cases: cell-based
[1] = biological target: T1, Myostatin (Homo sapiens, UniProt O14793); experiment: Reporter gene assay for myostatin signaling in HepG2 cell line, Evaluation Procedure (1), myostatin inhibition; details: Method A: Myostatin 10 ng/mL; read-out: IC50 (Luciferase) Myostatin HepG2
T1 construct: active myostatin (also called mature myostatin) is a homodimer consisting of two C-terminal growth factor domains; purchased R&D systems 788-G8/CF
T1 sequence (O14793 267-375): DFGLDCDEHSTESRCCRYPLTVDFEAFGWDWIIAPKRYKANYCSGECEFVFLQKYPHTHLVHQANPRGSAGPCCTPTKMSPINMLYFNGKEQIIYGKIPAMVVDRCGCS
Outline: (§1)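 IC50 derived from One-Glo luciferase luminescence after 20–24 h at 37 °C. Peptides titrated 4-fold at 0.006–100 nmol/L against myostatin or 0.12–2000 nmol/L against GDF-11 in HepG2 cells carrying a transfected CAGA12-luciferase reporter, kept in 0.1% BSA EMEM.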

[2] = tested on: Myostatin; experiment: as above; details: Method A; GDF-11 IC50 versus Myostatin IC50
Outline: as §1

[3] = biological target: T2, GDF-11 (Homo sapiens, UniProt O95390); experiment: Reporter gene assay for myostatin signaling in HepG2 cell line, Evaluation Procedure (1), GDF-11 inhibition; details: Method A: GDF-11 10 ng/mL; read-out: IC50 (Luciferase) GDF-11 HepG2
T2 construct: purchased R&D systems 1958-GD-G8/CF
T2 sequence (O95390 299-407): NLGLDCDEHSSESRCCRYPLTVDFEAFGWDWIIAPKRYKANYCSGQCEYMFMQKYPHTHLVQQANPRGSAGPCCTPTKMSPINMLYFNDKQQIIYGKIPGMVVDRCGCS
Outline: as §1

Compound | IC50 [1] | Selectivity [2] | IC50 [3]
CC[C@H](C)[C@@H]1NC(=O)[C@H](Cc2ccccc2)N(C)C(=O)[C@H](Cc2ccc(O)cc2)NC(=O)[C@H](Cc2ccc(-c3ccccc3)cc2)NC(=O)[C@H](C)NC(=O)CN(CCCC(=O)O)C(=O)CSC[C@H](C(=O)O)NC(=O)[C@H](Cc2ccccc2)N(C)C(=O)[C@H](C)N(C)C(=O)[C@H](CC(C)C)NC(=O)[C@H](Cc2ccccc2)N(C)C(=O)[C@H](CCCNC(=N)N)NC(=O)[C@H](Cc2ccc(OCC(=O)O)cc2)NC(=O)[C@H](Cc2cccc(OCC(=O)O)c2)NC(=O)CN(C)C1=O [Myostatin_99_v86] ({CH2CO}-[Gly(N(CH2)3COOH)]A[Bip]Y[NMeF]I[Sar][Phe(3-OCH2COOH)]Y(Carboxymethyl)R[NMeF]L[NMeA][NMeF][dC]-OH; thioether N-15) | 10.4 nM | 159 | 1650 nM
CC[C@H](C)[C@@H]1NC(=O)[C@H](Cc2ccccc2)N(C)C(=O)[C@H](Cc2ccc(O)cc2)NC(=O)[C@H](Cc2ccc(-c3ccccc3)cc2)NC(=O)[C@H](C)NC(=O)CN(CCCC(=O)O)C(=O)CSC[C@H](C(=O)O)NC(=O)[C@H](Cc2ccccc2)N(C)C(=O)[C@H](C)N(C)C(=O)[C@H](CC(C)C)NC(=O)[C@H](Cc2ccccc2)N(C)C(=O)[C@H](CCCNC(=N)N)NC(=O)[C@H](Cc2ccc(C(=O)O)cc2)NC(=O)[C@H](Cc2ccc(O)cc2)NC(=O)[C@H](C)N(C)C1=O [Myostatin_99_v182] ({CH2CO}-[Gly(N(CH2)3COOH)]A[Bip]Y[NMeF]I[NMeA]Y[Phe(4-COOH)]R[NMeF]L[NMeA][NMeF][dC]-OH; thioether N-15) | 53 nM | 26 | 1360 nM
CC[C@H](C)[C@@H]1NC(=O)[C@H](Cc2ccccc2)N(C)C(=O)[C@H](Cc2ccc(O)cc2)NC(=O)[C@H](Cc2ccc(-c3ccncc3)cc2)NC(=O)[C@H](C)NC(=O)CN(CCCC(=O)O)C(=O)CSC[C@H](C(=O)O)NC(=O)[C@H](Cc2ccccc2)N(C)C(=O)[C@H](C)N(C)C(=O)[C@H](CC(C)C)NC(=O)[C@H](Cc2ccccc2)N(C)C(=O)[C@H](CCCNC(=N)N)NC(=O)[C@H](Cc2ccc(OCC(=O)O)cc2)NC(=O)[C@H](Cc2cccc(OCC(=O)O)c2)NC(=O)CN(C)C1=O [Myostatin_99_v84] ({CH2CO}-[Gly(N(CH2)3COOH)]A[Phe(4-(4-pyridyl))]Y[NMeF]I[Sar][Phe(3-OCH2COOH)]Y(Carboxymethyl)R[NMeF]L[NMeA][NMeF][dC]-OH; thioether N-15) | 27.3 nM | 112 | 3050 nM
CC[C@H](C)[C@@H]1NC(=O)[C@H](Cc2ccccc2)N(C)C(=O)[C@H](Cc2ccc(O)cc2)NC(=O)[C@H](Cc2c[nH]c3ccccc23)NC(=O)[C@H](CO)NC(=O)CN(CCCC(=O)O)C(=O)CSC[C@H](C(=O)O)NC(=O)[C@H](Cc2ccccc2)N(C)C(=O)[C@H](C)N(C)C(=O)[C@H](CC(C)C)NC(=O)[C@H](Cc2ccccc2)N(C)C(=O)[C@H](CCCNC(=N)N)NC(=O)[C@H](Cc2ccc(C(=O)O)cc2)NC(=O)[C@H](Cc2cccc(OCC(=O)O)c2)NC(=O)[C@H](C)N(C)C1=O [Myostatin_99_v158] ({CH2CO}-[Gly(N(CH2)3COOH)]SWY[NMeF]I[NMeA][Phe(3-OCH2COOH)][Phe(4-COOH)]R[NMeF]L[NMeA][NMeF][dC]-OH; thioether N-15) | 62 nM | 104 | 6460 nM
CC[C@H](C)[C@@H]1NC(=O)[C@H](Cc2ccccc2)N(C)C(=O)[C@H](Cc2ccc(O)cc2)NC(=O)[C@H](Cc2c[nH]c3ncccc23)NC(=O)[C@H](C)NC(=O)CN(CCCC(=O)O)C(=O)CSC[C@H](C(=O)O)NC(=O)[C@H](Cc2ccccc2)N(C)C(=O)[C@H](C)N(C)C(=O)[C@H](CC(C)C)NC(=O)[C@H](Cc2ccccc2)N(C)C(=O)[C@H](CCCNC(=N)N)NC(=O)[C@H](Cc2ccc(C(N)=O)cc2)NC(=O)[C@H](Cc2ccccc2)NC(=O)CN(C)C1=O [Myostatin_99_v44] ({CH2CO}-[Gly(N(CH2)3COOH)]A[Trp(7-aza)]Y[NMeF]I[Sar]F[Phe(4-CONH2)]R[NMeF]L[NMeA][NMeF][dC]-OH; thioether N-15) | 8.4 nM | 96 | 810 nM
CC[C@H](C)[C@@H]1NC(=O)[C@H](Cc2ccccc2)N(C)C(=O)[C@H](Cc2ccc(O)cc2)NC(=O)[C@H](Cc2c[nH]c3ccccc23)NC(=O)[C@H](CO)NC(=O)CN(CCCC(=O)O)C(=O)CSC[C@H](C(=O)O)NC(=O)[C@H](Cc2ccccc2)N(C)C(=O)[C@H](C)N(C)C(=O)[C@H](CC(C)C)NC(=O)[C@H](Cc2ccccc2)N(C)C(=O)[C@H](CCCNC(=N)N)NC(=O)[C@H](Cc2ccc(C(=O)O)cc2)NC(=O)[C@H](Cc2ccc(O)cc2)NC(=O)CN(C)C1=O [Myostatin_99_v171] ({CH2CO}-[Gly(N(CH2)3COOH)]SWY[NMeF]I[Sar]Y[Phe(4-COOH)]R[NMeF]L[NMeA][NMeF][dC]-OH; thioether N-15) | 44.7 nM | 20 | 909 nM
CCCCCCC[C@@H]1NC(=O)[C@H](Cc2ccccc2)N(C)C(=O)[C@H](CCCNC(=N)N)NC(=O)[C@H](Cc2ccc(C(=O)O)cc2)NC(=O)[C@H](Cc2cccc(OCC(=O)O)c2)NC(=O)CN(C)C(=O)[C@H]([C@@H](C)CC)NC(=O)[C@H](Cc2ccccc2)N(C)C(=O)[C@H](Cc2ccc(O)cc2)NC(=O)[C@H](Cc2c[nH]c3ccccc23)NC(=O)[C@H](C)NC(=O)[C@H](CC(N)=O)NC(=O)CSC[C@H](C(=O)O)NC(=O)[C@H](Cc2ccccc2)N(C)C(=O)[C@H](C)N(C)C1=O [Myostatin_99_v217] ({CH2CO}-NAWY[NMeF]I[Sar][Phe(3-OCH2COOH)][Phe(4-COOH)]R[NMeF][X1][NMeA][NMeF][dC]-OH; thioether N-15) | 3 nM | 232 | 696 nM
CCCCC[C@@H]1NC(=O)[C@H](Cc2ccccc2)N(C)C(=O)[C@H](CCCNC(=N)N)NC(=O)[C@H](Cc2ccc(C(=O)O)cc2)NC(=O)[C@H](Cc2cccc(OCC(=O)O)c2)NC(=O)CN(C)C(=O)[C@H]([C@@H](C)CC)NC(=O)[C@H](Cc2ccccc2)N(C)C(=O)[C@H](Cc2ccc(O)cc2)NC(=O)[C@H](Cc2c[nH]c3ccccc23)NC(=O)[C@H](C)NC(=O)[C@H](C)NC(=O)CSC[C@H](C(=O)O)NC(=O)[C@H](Cc2ccccc2)N(C)C(=O)[C@H](C)N(C)C1=O [Myostatin_99_v201] ({CH2CO}-AAWY[NMeF]I[Sar][Phe(3-OCH2COOH)][Phe(4-COOH)]R[NMeF][Ahp(2)][NMeA][NMeF][dC]-OH; thioether N-15) | 8.6 nM | 262 | 2260 nM
CCCCCCC[C@@H]1NC(=O)[C@H](Cc2ccccc2)N(C)C(=O)[C@H](CCCNC(=N)N)NC(=O)[C@H](Cc2ccc(C(=O)O)cc2)NC(=O)[C@H](Cc2cccc(OCC(=O)O)c2)NC(=O)CN(C)C(=O)[C@H]([C@@H](C)CC)NC(=O)[C@H](Cc2ccc(O)cc2)N(C)C(=O)[C@H](Cc2ccc(O)cc2)NC(=O)[C@H](Cc2ccc(-c3ccccc3)cc2)NC(=O)[C@H](C)NC(=O)CN(CCCC(=O)O)C(=O)CSC[C@H](C(=O)O)NC(=O)[C@H](Cc2ccccc2)N(C)C(=O)[C@H](C)N(C)C1=O [Myostatin_99_v117] ({CH2CO}-[Gly(N(CH2)3COOH)]A[Bip]Y[NMeY]I[Sar][Phe(3-OCH2COOH)][Phe(4-COOH)]R[NMeF][X1][NMeA][NMeF][dC]-OH; thioether N-15) | 1.7 nM | 419 | 713 nM
CCCCCCC[C@@H]1NC(=O)[C@H](CC2CCCCC2)NC(=O)[C@H](CCCNC(=N)N)NC(=O)[C@H](Cc2ccc(C(=O)O)cc2)NC(=O)[C@H](CCCCNC(=O)N2CCN(CC(=O)O)CC2)NC(=O)[C@H]2CCCN2C(=O)[C@H]([C@@H](C)CC)NC(=O)[C@H](CC2CCCCC2)N(C)C(=O)[C@H](Cc2ccc(O)cc2)NC(=O)[C@H](Cc2c[nH]c3ccccc23)NC(=O)[C@@H](CCC(=O)O)NC(=O)[C@H](C)NC(=O)CSC[C@H](C(=O)N2CCN(CC(=O)O)CC2)NC(=O)[C@H](Cc2ccccc2)N(C)C(=O)[C@H](C)N(C)C1=O [Myostatin_99_v244] ({CH2CO}-A[dE]WY[NMeCha]I[dP]K([CO-Piperazinyl(4-CH2COOH)])[Phe(4-COOH)]R[Cha][X1][NMeA][NMeF][dC]-{Piperazinyl(4-CH2COOH)}; thioether N-15) | 17.7 nM | 771 | 13600 nM
CCCCCCCC[C@@H]1NC(=O)[C@H](Cc2ccccc2)N(C)C(=O)[C@H](CCCNC(=N)N)NC(=O)[C@H](Cc2ccc(C(=O)O)cc2)NC(=O)[C@H](Cc2cccc(OCC(=O)O)c2)NC(=O)CN(C)C(=O)[C@H]([C@@H](C)CC)NC(=O)[C@H](Cc2ccccc2)N(C)C(=O)[C@H](Cc2ccc(O)cc2)NC(=O)[C@H](Cc2c[nH]c3ccccc23)NC(=O)[C@H](C)NC(=O)CN(CCCC(=O)O)C(=O)CSC[C@H](C(=O)O)NC(=O)[C@H](Cc2ccccc2)N(C)C(=O)[C@H](C)N(C)C1=O [Myostatin_99_v200] ({CH2CO}-[Gly(N(CH2)3COOH)]AWY[NMeF]I[Sar][Phe(3-OCH2COOH)][Phe(4-COOH)]R[NMeF][Gly(octyl)][NMeA][NMeF][dC]-OH; thioether N-15) | 1 nM | 233 | 233 nM
